The values that follow come from patent EP4644383A1 (Jiangsu Yahong Meditech Co., Ltd., priority 2022, dated 2024).

pIC50: −log10 of the molar value. Like-named read-outs stand apart in the source and are kept apart here.

In one test the test system is Ba/F3-BCR-FGFR1 cells. The test is described as follows: Inhibition of proliferation activity of Ba/F3-BCR-FGFR1 cells (CellTiter-Glo). The settings on record: Ba/F3-BCR-FGFR1 cells, 72 hours, CTG; read-out: IC50 (nM) Ba/F3-BCR-FGFR1. Type of test: cell-based. As for the experimental part:
The present experiment used CellTiter-Glo® Luminescent Cell Viability Assay (Promega: G7573) kit, which was a homogeneous cell viability detection method and determined the cell viability of cultured cells by quantifying ATP. • ① Ba/F3-BCR-FGFR1 or Ba/F3-FGFR3-BAIAP2L1 cells were cultured in 1640 complete medium (Gibco: 11879020) (10% FBS (Gibco: 10091-148)+1% Pen Strep (Gibco: 15140122)) under the condition of 37°C and 5% CO2. • (2) The cells in logarithmic growth phase were harvested and counted using a […]. The trypan blue exclusion method was used to detect cell viability to ensure the cell viability was above 90%. • ③ The cell density was adjusted using 1640 complete medium, and then, the cells were seeded into a 96-well cell culture plate at 90 µL/well with a total of 2000 cells. • ④ A 10-fold drug solution was prepared starting from a maximum drug concentration of 10 µM and 4-fold serially diluted into10 concentrations. Then, 10 µL of each of the serially diluted compounds was transferred to the corresponding experimental wells of a 96-well cell plate, with two replicates for each drug concentration. • ⑤ The 96-well plate with the cells that had been treated with the drugs was placed under the condition of 37°C and 5% CO2 to be further cultured for 72 hours, and then analyzed by CTG. • ⑥ The CTG reagent was melted and the cell plate was equilibrated to room temperature for 30 minutes. • ⑦ 50 µL of the CTG solution was added to each well. • ⑧ The cell plate was shaken on an orbital shaker for 5 minutes to lyse the cells. • ⑨ The cell plate was placed at room temperature for 20 minutes to stabilize the luminescence signal. The luminescence values were read to collect the data. • ⑩ The data were analyzed using XLFit excel plugin version 5.5.0.5, and fitted with non-linear S-curve regression to obtain the dose-response curves and thus calculate the IC50 values. Y = Bottom + (Top-Bottom)/((1+(IC50/X))^(∧) HillSlope [formula]
"Top" refers to the maximum response, "Bottom" refers to the minimum response, and "HillSlope" refers to the slope of the curve.
"Max" represents the average value of the cell control+DMSO, and "Min" represents the average value of the medium control+DMSO.
(ATP-based viability assays read luminescence as a measure of living cells.)

In a further test the target is T1, FGFR4 (Homo sapiens, UniProt P22455).
T1 construct: FGFR4's cytoplasmic domain [460-802 (terminal) amino acids]; purchased Carna 08-136
The test is described as follows: FGFR4 kinase activity inhibition assay (LanthaScreen TR-FRET). The class given is biochemical. The following applies: for IC50: FGFR4 kinase, TR-FRET, read-out: IC50 (nM) FGFR4. The method, boiled down: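 GST-tagged cytoplasmic domains (FGFR2 aa 399-821; FGFR4 aa 460-802) were preincubated 10 min at 23 °C with compound (top 1 µM, threefold dilutions). Then 28 nM fluorescein-poly GT and 28 µM ATP were added for 30 min at 23 °C in HEPES pH 7.5 buffer. Tb-PY20 TR-FRET 520/495 ratio gave % inhibition versus DMSO and no-enzyme controls.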
For orientation: Time-resolved FRET reads energy transfer from a long-lived donor to a nearby acceptor.

A further test has as its target T2, FGFR2 (Homo sapiens, UniProt P21802).
T2 construct: FGFR2's cytoplasmic domain [399-821 (terminal) amino acids]; purchased Carna 08-134
The test is described as follows: FGFR2 kinase activity inhibition assay (LanthaScreen TR-FRET). The class given is biochemical. The following applies: for IC50: FGFR2 kinase, TR-FRET, read-out: IC50 (nM) FGFR2. The method, boiled down: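 GST-fused FGFR2 cytoplasmic domain (aa 399-821) was run as in the FGFR1 protocol: preincubated 10 min at 23 °C with compound (3-fold series from 1 µM) in 50 mM HEPES pH 7.5, 10 mM MgCl2, 4 mM DTT, 1% DMSO. A 2× mix of 28 nM fluorescein-poly GT/28 µM ATP then reacted 30 min. Tb-PY20/EDTA quench preceded the TR-FRET 520/495 read.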

In the next test the target is T3, FGFR3 (Homo sapiens, UniProt P22607).
T3 construct: FGFR3's cytoplasmic domain [436-806 (terminal) amino acids]; purchased Carna 08-135
The test is described as follows: FGFR3 kinase activity inhibition assay (LanthaScreen TR-FRET). Type of test: biochemical. The following applies: for IC50: FGFR3 kinase, TR-FRET, read-out: IC50 (nM) FGFR3; for Selectivity (X) FGFR1/FGFR3: ratio of IC50 FGFR1/FGFR3, selectivity towards FGFR3; for Selectivity (X) FGFR2/FGFR3: ratio of IC50 FGFR2/FGFR3, selectivity towards FGFR3; for Selectivity (X) FGFR4/FGFR3: ratio of IC50 FGFR4/FGFR3, selectivity towards FGFR3. In outline: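 Read-out is TR-FRET, with the 520 nm/495 nm emission ratio normalised to DMSO (max) and enzyme-free (min) controls. Enzyme was the FGFR3 cytoplasmic domain, residues 436-806. EDTA (10 mM) stopped the reaction, followed by 60 min at 22 °C before reading.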

T3 sequence (P22607 436-806): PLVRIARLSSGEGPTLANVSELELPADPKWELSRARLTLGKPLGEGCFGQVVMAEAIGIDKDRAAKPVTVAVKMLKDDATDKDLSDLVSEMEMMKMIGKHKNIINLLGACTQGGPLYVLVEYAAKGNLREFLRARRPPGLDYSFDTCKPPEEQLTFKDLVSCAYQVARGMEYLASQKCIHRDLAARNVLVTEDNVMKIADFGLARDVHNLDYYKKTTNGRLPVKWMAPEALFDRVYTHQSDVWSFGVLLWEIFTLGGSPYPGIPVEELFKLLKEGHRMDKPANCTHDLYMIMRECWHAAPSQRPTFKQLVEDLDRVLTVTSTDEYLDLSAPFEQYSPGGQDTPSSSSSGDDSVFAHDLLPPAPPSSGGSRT
T1 sequence (P22455 460-802): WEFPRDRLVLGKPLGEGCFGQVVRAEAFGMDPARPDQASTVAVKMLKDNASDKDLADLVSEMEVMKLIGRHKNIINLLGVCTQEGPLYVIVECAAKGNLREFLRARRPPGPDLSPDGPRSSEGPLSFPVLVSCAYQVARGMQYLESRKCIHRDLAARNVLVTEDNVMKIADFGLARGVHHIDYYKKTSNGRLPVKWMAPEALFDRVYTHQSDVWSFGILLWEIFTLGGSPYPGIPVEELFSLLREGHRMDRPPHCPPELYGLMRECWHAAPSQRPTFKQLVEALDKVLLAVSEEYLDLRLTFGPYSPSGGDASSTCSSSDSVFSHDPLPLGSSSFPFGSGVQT
T2 sequence (P21802 399-821): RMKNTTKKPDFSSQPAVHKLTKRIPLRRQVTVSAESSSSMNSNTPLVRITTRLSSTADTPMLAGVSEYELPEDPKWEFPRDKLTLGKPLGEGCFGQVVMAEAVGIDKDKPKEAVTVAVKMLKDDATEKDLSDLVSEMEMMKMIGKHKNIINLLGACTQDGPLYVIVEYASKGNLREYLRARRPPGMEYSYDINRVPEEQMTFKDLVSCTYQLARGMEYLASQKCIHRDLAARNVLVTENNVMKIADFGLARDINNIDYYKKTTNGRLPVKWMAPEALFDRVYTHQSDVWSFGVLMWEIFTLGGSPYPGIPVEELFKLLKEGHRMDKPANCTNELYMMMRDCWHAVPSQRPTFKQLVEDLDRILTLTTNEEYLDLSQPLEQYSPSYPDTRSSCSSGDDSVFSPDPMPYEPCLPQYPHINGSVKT

Turning to `Cc1cc2nccnc2c(C(C)Oc2ccc3[nH]nc(-c4cnn(C)c4)c3c2)n1` (stereo not drawn) [Example 183, 7-methyl-5-(1-((3-(1-methyl-1H-pyrazol-4-yl)-1H-indazol-5-yl)oxy)ethyl)pyridino [3,4-b]pyrazine], the IC50 was 55.3 nM in the test on Ba/F3-BCR-FGFR1 cells, 10 to 100 nM on FGFR4, 1 to 10 nM at FGFR2 and < 1 nM at FGFR3. The “Selectivity (X) FGFR1/FGFR3” value on FGFR3 is given as “B (B represents 20 ≤ multiple X<50)”. For the same compound, the “Selectivity (X) FGFR2/FGFR3” value at FGFR3 was “A (A represents 1 ≤ multiple X<20)”. The “Selectivity (X) FGFR4/FGFR3” value on FGFR3 is listed as “B (B represents 20 ≤ multiple X<50)”.

As to `COCC(=O)N1CC(n2cc(-c3n[nH]c4ccc(OC(C)c5cccc6nccnc56)cc34)cn2)C1` (stereo not drawn) [Example 188, 2-methoxy-1-(3-(4-(5-(1-(quinoxalin-5-yl)ethoxy)-1H-indazol-3-yl)-1H-pyrazol-1-yl)azetidin-1-yl)ethan-1-one], in the test with Ba/F3-BCR-FGFR1 cells, the IC50 is 277 nM. Besides, the IC50 on FGFR4 was in the range of 10 to 100 nM. At FGFR2, the IC50 lay within 1 to 10 nM. Also, on FGFR3, the IC50 was < 1 nM, the “Selectivity (X) FGFR1/FGFR3” value is on record as “B (B represents 20 ≤ multiple X<50)”, the “Selectivity (X) FGFR2/FGFR3” value is “A (A represents 1 ≤ multiple X<20)” and the “Selectivity (X) FGFR4/FGFR3” value is “B (B represents 20 ≤ multiple X<50)”.

Consider `CC(Oc1ccc2[nH]nc(-c3cnn(C4CN(C(=O)C(C)(C)O)C4)c3)c2c1)c1cccc2nccnc12` (stereo not drawn) [Example 190, 2-hydroxy-2-methyl-1-(3-(4-(5-(1-(quinoxalin-5-yl)ethoxy)-1H-indazol-3-yl)-1H-pyrazol-1-yl)azetidin-1-yl)propan-1-one], for which the IC50 in the test with Ba/F3-BCR-FGFR1 cells worked out at 425 nM. Besides, the IC50 at FGFR4 lay in the range of 10 to 100 nM. For the same compound, the IC50 at FGFR2 was in the range of 1 to 10 nM. For the same compound, at FGFR3, the IC50 was < 1 nM, the “Selectivity (X) FGFR1/FGFR3” value is “B (B represents 20 ≤ multiple X<50)”, the “Selectivity (X) FGFR2/FGFR3” value is on record as “A (A represents 1 ≤ multiple X<20)” and the “Selectivity (X) FGFR4/FGFR3” value was “B (B represents 20 ≤ multiple X<50)”.

For `CC(=O)N1CC(n2cc(-c3n[nH]c4ccc(OC(C)c5cccc6nccnc56)cc34)cn2)C1` (stereo not drawn) [Example 218, 1-(3-(4-(5-(1-(quinoxalin-5-yl)ethoxy)-1H-indazol-3-yl)-1H-pyrazol-1-yl)azetidin-1-yl)ethan-1-one], the IC50 in the test with Ba/F3-BCR-FGFR1 cells was found to be 441 nM. For the same compound, at FGFR4, the IC50 was 10 to 100 nM. At FGFR2, the IC50 is 1 to 10 nM. Besides, on FGFR3, the IC50 was < 1 nM, the “Selectivity (X) FGFR1/FGFR3” value was “B (B represents 20 ≤ multiple X<50)”, the “Selectivity (X) FGFR2/FGFR3” value is on record as “A (A represents 1 ≤ multiple X<20)” and the “Selectivity (X) FGFR4/FGFR3” value is listed as “B (B represents 20 ≤ multiple X<50)”.

In the case of `CC(Oc1ccc2[nH]nc(-c3cnn(C)c3)c2c1)c1nc(C(F)F)cc2nccnc12` (stereo not drawn) [Example 236, 7-(difluoromethyl)-5-(1-((3-(1-methyl-1H-pyrazol-4-yl)-1H-indazol-5-yl)oxy)ethyl)pyridino[3,4-b]pyrazine], the IC50 in the test with Ba/F3-BCR-FGFR1 cells stood at 161 nM. Moreover, the IC50 on FGFR4 was in the range of 10 to 100 nM. Moreover, on FGFR2, the IC50 fell in the range of 1 to 10 nM. For the same compound, on FGFR3, the IC50 is < 1 nM, the “Selectivity (X) FGFR1/FGFR3” value is “A (A represents 1 ≤ multiple X<20)”, the “Selectivity (X) FGFR2/FGFR3” value is “A (A represents 1 ≤ multiple X<20)” and the “Selectivity (X) FGFR4/FGFR3” value was “C (C represents 50 ≤ multiple X<100)”.

Turning to `[2H]C([2H])([2H])c1cc2nccnc2c(C(C)Oc2ccc3[nH]nc(-c4cnn(C)c4)c3c2)n1` (stereo not drawn) [Example 241], in the test with Ba/F3-BCR-FGFR1 cells, the IC50 stood at 62.3 nM. The same compound gave a pIC50 on FGFR4 of 8.00 to 9.00. Moreover, the pIC50 at FGFR2 is > 9.00. In addition, at FGFR3, the pIC50 is > 9.00, the “Selectivity (X) FGFR1/FGFR3” value is “B (B represents 20 ≤ multiple X<50)”, the “Selectivity (X) FGFR2/FGFR3” value was “A (A represents 1 ≤ multiple X<20)” and the “Selectivity (X) FGFR4/FGFR3” value is “A (A represents 1 ≤ multiple X<20)”.

The term pIC50 denotes the negative decadic logarithm of the IC50, by convention in mol/L. A high value points to a small IC50.
